{"source": "patent US11214803B2", "about": "“Modulators of YAP1 expression” (Ionis Pharmaceuticals, Inc., priority 2019, dated 2022)", "test_system": "Yap1 mRNA", "test": "Dose-dependent inhibition of human Yap1 in A-431 cells (Example 7, 10,000 cells per well, RTS36584)", "assay_type": "cell-based", "conditions": "free uptake", "how_it_was_run": "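Yap1 mRNA was expressed as percent of untreated control after normalization to total RNA (RIBOGREEN), and IC50 was derived by log/linear linear regression. The read-out used primer-probe set RTS36584 roughly 48 hours after free-uptake dosing of oligonucleotides into A-431 cells (10,000 cells/well).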", "key": {"[1]": {"conditions": "15.6 nM, A-431 cells, 10,000 cells per well, approximately 48 hours"}, "[2]": {"conditions": "62.5 nM, A-431 cells, 10,000 cells per well, approximately 48 hours"}, "[3]": {"conditions": "4000.00 nM, A-431 cells, 10,000 cells per well, approximately 48 hours"}, "[4]": {"conditions": "A-431 cells, approximately 48 hours, linear regression on log/linear plot"}, "[5]": {"conditions": "Table 57, 15.6 nM, A-431 cells 10,000 cells per well, 48 hours"}, "[6]": {"conditions": "Table 57, 62.5 nM, A-431 cells 10,000 cells per well, 48 hours"}, "[7]": {"conditions": "Table 57, 4000.00 nM, A-431 cells 10,000 cells per well, 48 hours"}, "[8]": {"conditions": "Table 57, A-431 cells 10,000 cells per well"}}, "note": "pIC50: −log10 of the molar value. Strand notation (5' to 3'): a small letter for the sugar, then the base; units joined by * are phosphorothioate-linked, units joined directly phosphodiester-linked; [ ] holds rarer units or linkages, { } end groups; capitals alone tell only the bases. k = constrained ethyl (cEt); [5mC] = 5-methylcytosine; d = 2'-deoxy (DNA)", "data": [{"substance": "958565 (kT*kT*kG*dA*dG*d[5mC]*dA*d[5mC]*dT*dG*dA*dA*dA*kG*kT*kA; antisense) [compound 958565]", "values": [{"measurement": "Yap1 mRNA, % UTC", "setting": "[1]", "result": 83, "unit": "% UTC"}, {"measurement": "Yap1 mRNA, % UTC", "setting": "[2]", "result": 62, "unit": "% UTC"}, {"measurement": "Yap1 mRNA, % UTC", "setting": "[3]", "result": 13, "unit": "% UTC"}, {"measurement": "pIC50", "setting": "[4]", "result": 7.00}]}, {"substance": "958567 (kT*k[5mC]*kA*dA*d[5mC]*d[5mC]*dT*dA*dT*dG*dA*dA*d[5mC]*kT*kA*kT; antisense) [compound 958567]", "values": [{"measurement": "Yap1 mRNA, % UTC", "setting": "Table 58, 15.6 nM, A-431 cells 10,000 cells per well, 48 hours", "result": 99, "unit": "% UTC"}, {"measurement": "Yap1 mRNA, % UTC", "setting": "Table 58, 62.5 nM, A-431 cells 10,000 cells per well, 48 hours", "result": 80, "unit": "% UTC"}, {"measurement": "Yap1 mRNA, % UTC", "setting": "Table 58, 4000.00 nM, A-431 cells 10,000 cells per well, 48 hours", "result": 16, "unit": "% UTC"}, {"measurement": "pIC50", "setting": "Table 58, A-431 cells 10,000 cells per well", "result": 6.70}]}, {"substance": "958650 (kT*k[5mC]*kA*dA*dT*dT*dG*dA*dG*dT*d[5mC]*dT*dG*k[5mC]*kT*kA; antisense) [compound 958650]", "values": [{"measurement": "Yap1 mRNA, % UTC", "setting": "[1]", "result": 82, "unit": "% UTC"}, {"measurement": "Yap1 mRNA, % UTC", "setting": "[2]", "result": 51, "unit": "% UTC"}, {"measurement": "Yap1 mRNA, % UTC", "setting": "[3]", "result": 7, "unit": "% UTC"}, {"measurement": "pIC50", "setting": "[4]", "result": 7.00}]}, {"substance": "958781 (kG*kT*k[5mC]*dA*dT*d[5mC]*dT*dA*dT*dG*dT*dG*dT*k[5mC]*k[5mC]*kT; antisense) [compound 958781]", "values": [{"measurement": "Yap1 mRNA, % UTC", "setting": "[5]", "result": 77, "unit": "% UTC"}, {"measurement": "Yap1 mRNA, % UTC", "setting": "[6]", "result": 45, "unit": "% UTC"}, {"measurement": "Yap1 mRNA, % UTC", "setting": "[7]", "result": 10, "unit": "% UTC"}, {"measurement": "pIC50", "setting": "[8]", "result": 7.00}]}, {"substance": "958507 (kG*kA*kG*d[5mC]*dA*dG*dA*dT*dA*dA*dT*d[5mC]*dG*kA*kG*kA; antisense) [compound 958507]", "values": [{"measurement": "Yap1 mRNA, % UTC", "setting": "Table 59, 15.6 nM, A-431 cells 10,000 cells per well, 48 hours", "result": 93, "unit": "% UTC"}, {"measurement": "Yap1 mRNA, % UTC", "setting": "Table 59, 62.5 nM, A-431 cells 10,000 cells per well, 48 hours", "result": 69, "unit": "% UTC"}, {"measurement": "Yap1 mRNA, % UTC", "setting": "Table 59, 4000.00 nM, A-431 cells 10,000 cells per well, 48 hours", "result": 19, "unit": "% UTC"}, {"measurement": "pIC50", "setting": "Table 59, A-431 cells 10,000 cells per well", "result": 6.70}]}, {"substance": "958545 (kA*k[5mC]*kT*d[5mC]*dT*dA*dG*dT*dT*dA*d[5mC]*dA*dT*k[5mC]*kA*kT; antisense) [compound 958545]", "values": [{"measurement": "Yap1 mRNA, % UTC", "setting": "[1]", "result": 75, "unit": "% UTC"}, {"measurement": "Yap1 mRNA, % UTC", "setting": "[2]", "result": 50, "unit": "% UTC"}, {"measurement": "Yap1 mRNA, % UTC", "setting": "[3]", "result": 8, "unit": "% UTC"}, {"measurement": "pIC50", "setting": "[4]", "result": 7.00}]}, {"substance": "958544 (kG*k[5mC]*kT*dA*dA*dA*dT*dT*d[5mC]*dA*dA*d[5mC]*dT*kA*k[5mC]*k[5mC]; antisense) [compound 958544]", "values": [{"measurement": "Yap1 mRNA, % UTC", "setting": "[1]", "result": 65, "unit": "% UTC"}, {"measurement": "Yap1 mRNA, % UTC", "setting": "[2]", "result": 77, "unit": "% UTC"}, {"measurement": "Yap1 mRNA, % UTC", "setting": "[3]", "result": 17, "unit": "% UTC"}, {"measurement": "pIC50", "setting": "[4]", "result": 7.00}]}, {"substance": "958796 (kA*kT*kT*dA*dT*dA*dT*dG*dG*dT*dT*dG*d[5mC]*kT*kT*k[5mC]; antisense) [compound 958796]", "values": [{"measurement": "Yap1 mRNA, % UTC", "setting": "Table 56, 15.6 nM, A-431 cells 10,000 cells per well, 48 hours", "result": 91, "unit": "% UTC"}, {"measurement": "Yap1 mRNA, % UTC", "setting": "Table 56, 62.5 nM, A-431 cells 10,000 cells per well, 48 hours", "result": 62, "unit": "% UTC"}, {"measurement": "Yap1 mRNA, % UTC", "setting": "Table 56, 4000.00 nM, A-431 cells 10,000 cells per well, 48 hours", "result": 15, "unit": "% UTC"}, {"measurement": "pIC50", "setting": "Table 56, A-431 cells 10,000 cells per well", "result": 6.89}]}, {"substance": "958525 (kA*kT*kG*dA*dA*dG*dG*dT*dA*dA*dA*d[5mC]*d[5mC]*kA*k[5mC]*kT; antisense) [compound 958525]", "values": [{"measurement": "Yap1 mRNA, % UTC", "setting": "[1]", "result": 94, "unit": "% UTC"}, {"measurement": "Yap1 mRNA, % UTC", "setting": "[2]", "result": 57, "unit": "% UTC"}, {"measurement": "Yap1 mRNA, % UTC", "setting": "[3]", "result": 8, "unit": "% UTC"}, {"measurement": "pIC50", "setting": "[4]", "result": 7.00}]}, {"substance": "958805 (k[5mC]*kA*kA*dG*dA*dT*dA*dA*dT*d[5mC]*dA*dT*d[5mC]*k[5mC]*kT*k[5mC]; antisense) [compound 958805]", "values": [{"measurement": "Yap1 mRNA, % UTC", "setting": "[1]", "result": 90, "unit": "% UTC"}, {"measurement": "Yap1 mRNA, % UTC", "setting": "[2]", "result": 89, "unit": "% UTC"}, {"measurement": "Yap1 mRNA, % UTC", "setting": "[3]", "result": 28, "unit": "% UTC"}, {"measurement": "pIC50", "setting": "[4]", "result": 6.52}]}, {"substance": "958686 (k[5mC]*kG*k[5mC]*dA*dA*dT*dA*dT*dA*dG*dT*d[5mC]*dT*kA*kT*kA; antisense) [compound 958686]", "values": [{"measurement": "Yap1 mRNA, % UTC", "setting": "[5]", "result": 75, "unit": "% UTC"}, {"measurement": "Yap1 mRNA, % UTC", "setting": "[6]", "result": 69, "unit": "% UTC"}, {"measurement": "Yap1 mRNA, % UTC", "setting": "[7]", "result": 18, "unit": "% UTC"}, {"measurement": "pIC50", "setting": "[8]", "result": 7.00}]}, {"substance": "958761 (kA*kG*kT*d[5mC]*dT*d[5mC]*dA*dA*d[5mC]*dA*dA*d[5mC]*d[5mC]*kT*kT*k[5mC]; antisense) [compound 958761]", "values": [{"measurement": "Yap1 mRNA, % UTC", "setting": "[5]", "result": 84, "unit": "% UTC"}, {"measurement": "Yap1 mRNA, % UTC", "setting": "[6]", "result": 73, "unit": "% UTC"}, {"measurement": "Yap1 mRNA, % UTC", "setting": "[7]", "result": 24, "unit": "% UTC"}, {"measurement": "pIC50", "setting": "[8]", "result": 6.70}]}, {"substance": "958753 (kT*kG*kT*dA*dT*dA*dT*dG*d[5mC]*d[5mC]*dG*dT*dT*k[5mC]*k[5mC]*k[5mC]; antisense) [compound 958753]", "values": [{"measurement": "Yap1 mRNA, % UTC", "setting": "Table 60, 15.6 nM, A-431 cells 10,000 cells per well, 48 hours", "result": 72, "unit": "% UTC"}, {"measurement": "Yap1 mRNA, % UTC", "setting": "Table 60, 62.5 nM, A-431 cells 10,000 cells per well, 48 hours", "result": 48, "unit": "% UTC"}, {"measurement": "Yap1 mRNA, % UTC", "setting": "Table 60, 4000.00 nM, A-431 cells 10,000 cells per well, 48 hours", "result": 11, "unit": "% UTC"}, {"measurement": "pIC50", "setting": "Table 60, A-431 cells 10,000 cells per well", "result": 7.00}]}, {"substance": "958490 (kG*kT*kG*dA*d[5mC]*dA*dT*dG*dA*dA*dG*d[5mC]*dA*kT*k[5mC]*kT; antisense) [compound 958490]", "values": [{"measurement": "Yap1 mRNA, % UTC", "setting": "[1]", "result": 81, "unit": "% UTC"}, {"measurement": "Yap1 mRNA, % UTC", "setting": "[2]", "result": 54, "unit": "% UTC"}, {"measurement": "Yap1 mRNA, % UTC", "setting": "[3]", "result": 13, "unit": "% UTC"}, {"measurement": "pIC50", "setting": "[4]", "result": 7.00}]}, {"substance": "958529 (k[5mC]*kA*kA*dG*dT*d[5mC]*dT*dT*dG*dT*dA*dA*dG*kT*kA*kA; antisense) [compound 958529]", "values": [{"measurement": "Yap1 mRNA, % UTC", "setting": "Table 61, 15.6 nM, A-431 cells 10,000 cells per well, 48 hours", "result": 103, "unit": "% UTC"}, {"measurement": "Yap1 mRNA, % UTC", "setting": "Table 61, 62.5 nM, A-431 cells 10,000 cells per well, 48 hours", "result": 64, "unit": "% UTC"}, {"measurement": "Yap1 mRNA, % UTC", "setting": "Table 61, 4000.00 nM, A-431 cells 10,000 cells per well, 48 hours", "result": 11, "unit": "% UTC"}, {"measurement": "pIC50", "setting": "Table 61, A-431 cells 10,000 cells per well", "result": 7.00}]}]}
